The values below come from article PMC10247784, “Physiological activation of human and mouse bitter taste receptors by bile acids” (Communications Biology, 2023).

SMILES strings stand for the structures.

This assay has as its target T1, mouse Tas2r123 (Mus musculus, UniProt P59528).
T1 construct: expressed in transfected cells; host or cells: HEK293T-Gα16gust44
T1 sequence (P59528 1-333): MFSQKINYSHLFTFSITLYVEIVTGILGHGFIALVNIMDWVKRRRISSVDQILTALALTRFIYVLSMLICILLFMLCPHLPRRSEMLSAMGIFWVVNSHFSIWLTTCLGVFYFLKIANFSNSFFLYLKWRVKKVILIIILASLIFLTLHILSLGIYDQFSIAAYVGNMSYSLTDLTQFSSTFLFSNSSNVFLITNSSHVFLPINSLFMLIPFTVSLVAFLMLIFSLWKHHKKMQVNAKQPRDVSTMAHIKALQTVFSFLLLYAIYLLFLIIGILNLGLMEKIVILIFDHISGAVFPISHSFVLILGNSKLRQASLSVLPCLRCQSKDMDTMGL
The experiment in a line: Calcium imaging assay (FLIPR), HEK293T-Gα16gust44 cells transfected with mouse Tas2r123. Conditions: for Activation threshold concentration Tas2r123: p < 0.01 vs empty vector; for Δ F/F: Tas2r123. It is filed as cell-based. Here is the method:
This set of bile acids was chosen because of their commercial availability in high purities, their diversity within the class of bile acids and their previous detection and quantitation in human blood. Stock solutions were prepared in DMSO.
As basal growth medium for the HEK293T-Gα16gust44 cell line[17],[59] served Dulbecco’s modified eagle medium (DMEM) (Thermo Fisher Scientific, Darmstadt, Germany) supplemented with 10 % fetal bovine serum (Sigma-Aldrich, Steinheim, Germany), 2 mM L-glutamine (Sigma-Aldrich, Steinheim, Germany), 100 units/ml penicillin (Sigma Aldrich, Steinheim, Germany) and 100 µg/ml streptomycin (Sigma Aldrich, Steinheim, Germany). Growth conditions were 37 °C, 5 % CO2 and saturated air-humidity[60].
HEK293T-Gα16gust44 cells were seeded on poly-D-lysine (10 µg/ml) coated 96-well plates to reach a confluence of 40-60 % the next day. For transient transfection 150 ng of plasmid DNA containing the receptor of interest and 0.3 µl lipofectamine 2000 (Thermo Fisher Scientific, Darmstadt, Germany) per well were used and transfection took place according to the manual of lipofectamine 2000. […] The empty vector DNA (mock) was transfected as negative control[14],[41].
Cells were loaded using the calcium-sensitive fluorescent dye Fluo-4-AM (Abcam, Cambridge, Great Britain) in the presence of 2.5 mM probenecid (Sigma-Aldrich, Steinheim, Germany) the day after transfection[13],[41]. 1 h after loading, cells were washed with C1 buffer using a BioTek Cell Washer, incubated in the dark for half an hour and washed again. For automated agonist application and measurement of fluorescence changes, a FLIPR^TETRA device (Molecular Devices, San José, United States) was used. Viability of cells was tested by application of 100 nM Somatostatin 14 (Bachem, Bubendorf, Switzerland)[42].
Measured data were negative control corrected by subtracting the signal of the mock-transfected cells and exported to Microsoft Excel using the FLIPR software ScreenWorks 4.2. In Microsoft Excel software, standardization of maximum fluorescence intensities to the basal fluorescence and normalization to the buffer-only control was done to calculate the relative fluorescence changes (ΔF/F).
Initial screening experiments performed in duplicate wells were confirmed by at least one replication and representative traces were selected for display. All dose-response relationships were determined by three independent experiments (biological replicates) performed in duplicates (technical replicates). Threshold concentrations, defined as lowest substance concentrations leading to statistically significant elevated fluorescence changes in receptor-transfected cells compared with empty vector-transfected cells, were determined using SigmaPlot with Student’s t-test to evaluate statistical significance (p < 0.01).

`C[C@H](CCC(=O)O)[C@H]1CC[C@H]2[C@@H]3[C@H](O)C[C@@H]4C[C@H](O)CC[C@]4(C)[C@H]3C[C@H](O)[C@]12C` [Cholic Acid, cholic acid]: the “Activation threshold concentration Tas2r123” value was 10 µM.

For `C[C@H](CCC(=O)O)[C@H]1CC[C@H]2[C@@H]3CC[C@@H]4C[C@H](O)CC[C@]4(C)[C@H]3C[C@H](O)[C@]12C` [Deoxycholic Acid, deoxycholic acid], the “Activation threshold concentration Tas2r123” value is listed as 10 µM.

On to `C[C@H](CCC(=O)NCC(=O)O)[C@H]1CC[C@H]2[C@@H]3[C@H](O)C[C@@H]4C[C@H](O)CC[C@]4(C)[C@H]3C[C@H](O)[C@]12C` [Glycocholic Acid, glycocholic acid], for which the “Activation threshold concentration Tas2r123” value was 30 µM. In addition, the “Δ F/F” value (conc. 0,01 mM) is given as -0.001074. For the setting “conc. 0,1 mM”, the “Δ F/F” value is recorded as -0.0006317. Where the note is “conc. 0,03 mM”, the “Δ F/F” value is on record as -0.000632. The “Δ F/F” value (conc. 0,3 mM) is listed as -0.001006. Moreover, for the setting “conc. 0,001 mM”, the “Δ F/F” value is recorded as 7.054e-5. The “Δ F/F” value (conc. 0,003 mM) was 0.000982.

In the case of `C[C@H](CCC(=O)NCCS(=O)(=O)O)[C@H]1CC[C@H]2[C@@H]3[C@H](O)C[C@@H]4C[C@H](O)CC[C@]4(C)[C@H]3C[C@H](O)[C@]12C` [Taurocholic Acid, taurocholic acid], the “Activation threshold concentration Tas2r123” value amounted to 100 µM. Besides, the “Δ F/F” value (conc. 0,01 mM) turned out to be 0.015. Further, the “Δ F/F” value (conc. 0,1 mM) stood at 0.09205. The “Δ F/F” value (conc. 0,03 mM) amounted to 0.02651. Besides, under “conc. 0,3 mM”, the “Δ F/F” value is listed as 0.1589. Besides, the “Δ F/F” value (conc. 0,001 mM) was determined as 0.002404. Also, for the setting “conc. 0,003 mM”, the “Δ F/F” value was 0.009262.

On to `C[C@H](CCC(=O)O)[C@H]1CC[C@H]2[C@@H]3[C@@H](O)C[C@@H]4C[C@H](O)CC[C@]4(C)[C@H]3CC[C@]12C` [Ursodeoxycholic Acid, ursodeoxycholic acid], for which the “Activation threshold concentration Tas2r123” value is reported as 10 µM. Moreover, the “Δ F/F” value (conc. 0,01 mM) stood at 0.06526. In addition, the “Δ F/F” value (conc. 0,03 mM) came to 0.08617. Moreover, the “Δ F/F” value (conc. 0,0001 mM) was -5.942e-5. For the same molecule, the “Δ F/F” value (conc. 0,0003 mM) is on record as -0.0007331. Further, under “conc. 0,001 mM”, the “Δ F/F” value is 0.01545. Under “conc. 0,003 mM”, the “Δ F/F” value came to 0.01427.
